{
  "source": "patent US20250082760A1",
  "about": "(priority 2020, published 2025)",
  "key": {"reserpine-treated mice": {"test_system": "reserpine-treated mice", "experiment": "mouse sugar water preference test (reserpine depression model)", "assay_type": "in vivo, Kunming mice", "experimental": "Experimental drug, clomipramine (CLI), sigma company, batch number: C7291, 10 mg/ml (10% DMSO); reserpine (Res), sigma company, batch number: 83580, 1 mg/ml (10% DMSO);\nSPF adult male Kunming mice, 20-30 g, Laboratory Animal Center of Lanzhou University, animal certificate number: SCXK (Gan) 2018-0002, reared in separate cages, temperature 22±1° C., humidity […], 12 h/12 h light and dark cycle controlled by dynamic light (light-on time 8:000 h, light-off time 20:000 h, light intensity≈100 lux), animals could eat and move freely.\n(§1) Statistical analysis, the experimental data were analyzed by SPSS 19.0 statistical software, and all data were expressed as Means±SEM."}, "[1]": {"test_system": "convulsions in mice induced by electrical stimulation", "experiment": "anticonvulsant effect on mice induced by electrical stimulation", "assay_type": "in vivo", "conditions": "compared with blank group", "experimental": "(1) Divide 40 mice (20♀20) into 5 groups at random, with 8 mice (4♀4) in each group, and label No. 1 to No. 8 with picric acid respectively; (2) All mice were tested according to the order of groups and labels electrical stimulation, the initial voltage was 40V, the voltage was increased by 2.5V each time, the time interval between two electrical stimulations for the same mouse was 20 min, the threshold voltage value of convulsion and the time from convulsion to complete recovery were recorded, and the dead mice were discarded, qualified mice were screened; (3) After screening, 7 mice (2♀5) in the 40 mice could not recover after convulsions and died, and the remaining 33 qualified mice […]; (4) From standby 7 mice were screened out as a supplement, and the number of the dead mice in step (2) was marked with picric acid and added to the corresponding groups, so that a total of 40 (20♀20) qualified mice in 5 groups were finally obtained., all mice were weighed and recorded.\nPositive drug: sodium valproate (specification 0.2 g), take 1 tablet in a mortar, add 20 ml of 0.5% CMC-Na solution while grinding, to a suspended state, set EP tube for use; test drug (compound 5): Dissolve in distilled water to 5, 10, and 20 mg/ml solutions, respectively, and set EP tubes for later use.\nElectrical stimulation was performed 1.5 hours after the last administration, and each mouse was given the threshold voltage measured before to observe the experimental phenomenon and record whether there was convulsions and death occurred.\nThe first group was the blank control group, which was given 0.4 ml/20 g of 0.5% CMC-Na by gavage; the second group was the positive drug control group, which was given sodium valproate 200 mg/kg by gavage; the third group was the test drug the low-dose group, which was given 100 mg/kg of compound 5 by gavage; the fourth group was the test drug medium-dose group, which was given 200 mg/kg of compound 5 by gavage; the fifth group was the test drug high-dose group, which was given 400 mg/kg of compound 5 by gavage.\n1.5 h after the last administration, electrical stimulation was performed according to the threshold voltage measured before each mouse, the experimental phenomenon was observed, and the occurrence of convulsions and death were recorded. If convulsion occurs, record the time of complete recovery; if no convulsion occurs, continue to increase the voltage with a gradient of 2.5V to measure the current threshold voltage value and recovery time.\nStrictly follow the 5 periods of convulsion in mice, namely, latency period, rigid flexion period, hindlimb extension period, clonic period and recovery period to judge whether the mice have convulsions after electrical stimulation, and the phenomenon of death can not be recovered after convulsions."}, "[2]": {"test_system": "reserpine depression model mice", "experiment": "forced swimming test in mice (reserpine depression model)", "assay_type": "in vivo, Kunming mice", "experimental": "Experimental Drug, Animal, Grouping and Administration are Same as Sugar Water Preference Experiment Method.\nPreparation of depression animal models, acute intraperitoneal injection of 6 mg/kg Res can cause a continuous decrease in monoamine neurotransmitters in the brain for 1 week, and depression-like behaviors last for 72 hours, it is often utilized for the preparation of depression models (Huang et al., 2004).\nForced swimming experiment process, the forced swimming experiment is an experiment in which animals are placed in an unavoidable stressful environment to detect the despair state of animal behavior (Porsolt et al., 1978). Male Kunming mice were selected and randomly divided into groups. Conduct in a quiet and enclosed behavioral observation room, with red lights for indoor lighting (25 lux). The experiment is divided into two stages, the first stage: adaptation experiment, 1 day before the test, 9:00-12:00 h, put the animals into the forced swimming test equipment (plexiglass drum: diameter 20 cm, height 25 cm, water depth 12 cm, water temperature 21-25° C., the upper side CCD camera is connected to the computer to record) after 15 minutes of adaptation, take it out, dry the hair with a towel and put it back into the cage. The second stage: testing experiment, animals in each group were put into the forced swimming bucket for 5 minutes at the same time period, and the behavioral activities during the testing period were tracked and recorded by digital cameras and then analyzed. Immobility time: The animal floats on the water surface, with no movement of the limbs or slight movement of the hind limbs to keep the head above the water surface. Evaluate depression like behavior by detecting the despair state of animals based on their immobility time.\nas §1"}, "[3]": {"experiment": "stability (degradation test) in acidified plasma", "assay_type": "in vitro ADME, rat", "conditions": "for Sample Peak Average: rat, 5 μmol/ml", "experimental": "• a: Compound 5 prepared in Example 5 was dissolved in purified water to prepare solution A with a concentration of 10 mg/ml; 150 μl of solution A was added to 660 μl of pre-warmed plasma (37° C.), and the pH was adjusted with 0.1% acetic acid to dissolve the sample clear to obtain solution B; • b: Solution B (5 μmol/ml) was stirred in a water bath at 37° C. for a certain period of time (1 min, 2 min, 4 min, 8 min, 16 min, 30 min, 1 h, 2 h, 4 h) and 50 μl was sampled at each time point; • c: 50 μl of the sampled solution was added to 950 μl methanol (0.1% AcH) to precipitate plasma proteins, resulting in mixture C. • d: The mixture C was vortexed for 1 s, centrifuged at 12000 r for 3 min, and the supernatant was taken for testing.\nLiquid phase detection: take 10 μl of the supernatant after the above centrifugation into a sample for measurement."}, "[4]": {"conditions": "Res 6 mg/kg + compound 5 56 mg/kg i.p."}, "[5]": {"conditions": "after Res 6 mg/kg i.p., CLI 50, Pro 25, A1P1 24 and 25, compound 5 56 mg/kg i.p."}},
  "note": "Counter-ions that a name gives are not always drawn.",
  "data": [
    {"smiles": "CC(C)c1cccc(C(C)C)c1OC(=O)CC1(CN(C)C)CCCCC1", "note": "[Compound 5, 2,6-diisopropylphenyl 2-(1-((dimethylamino)methyl)cyclohexyl)acetate hydrochloride]", "values": [
      {"measurement": "antidepressant effect (sugar water preference test)", "setting": "reserpine-treated mice; [4]", "value": "significant antidepressant effect"},
      {"measurement": "change of preference for sugar water compared with the Res+DMSO group", "setting": "reserpine-treated mice; [5]", "value": "rose significantly"},
      {"measurement": "Sugar water preference (sugar water drinking amount/total drinking amount)", "setting": "reserpine-treated mice; after Res 6 mg/kg i.p., CLI 50, Pro 25, A1P1 24 and 25, compound 5 56 mg/kg i.p., Means±SEM, Res + DMSO 0.642 ± 0.036, DMSO 0.901 ± 0.026", "value": "0.894 ± 0.028"},
      {"measurement": "anti-electrical convulsion ability (threshold voltage increase)", "setting": "[1]; 100 mg/kg gavage, p>0.05", "value": "no significant effect"},
      {"measurement": "anti-electrical convulsion ability (threshold voltage increase)", "setting": "[1]; 200 mg/kg gavage, p>0.05", "value": "no significant effect"},
      {"measurement": "anti-electrical convulsion ability (threshold voltage increase)", "setting": "[1]; 400 mg/kg gavage, p<0.01", "value": "significantly improve"},
      {"measurement": "weight gain of mice", "setting": "[1]; sodium valproate 200 mg/kg, compound 5 100, 200, 400 mg/kg gavage, p>0.05", "value": "no difference"},
      {"measurement": "antidepressant effect (forced swimming test)", "setting": "[2]; [4]", "value": "significant antidepressant effect"},
      {"measurement": "forced immobility time compared with the Res+A1P1 group", "setting": "[2]; [4]", "value": "shortened to a certain extent, but there was no significant difference"},
      {"measurement": "forced immobility time compared with the Res+Pro group", "setting": "[2]; [4]", "value": "shortened and there was a significant difference"},
      {"measurement": "change of forced swimming immobility time compared with the Res+DMSO group", "setting": "[2]; [5]", "value": "slightly shortened"},
      {"measurement": "Forced swimming immobility time", "setting": "[2]; after Res 6 mg/kg i.p., CLI 50, Pro 25, A1P1 24 and 25, compound 5 56 mg/kg i.p., 5 min test, Means±SEM, Res + DMSO 169.82 ± 11.22, DMSO 106.72 ± 16.49", "value": "116.29 ± 22.23", "unit": "s"},
      {"measurement": "degradation / stability in acidified plasma", "setting": "[3]; plasma acidified with 0.1% acetic acid, 37° C., up to 2 h", "value": "not significantly degraded"},
      {"measurement": "Sample Peak Average", "setting": "[3]; 1 min", "value": 196752060},
      {"measurement": "Sample Peak Average", "setting": "[3]; 2 min", "value": 189140125},
      {"measurement": "Sample Peak Average", "setting": "[3]; 4 min", "value": 184526452},
      {"measurement": "Sample Peak Average", "setting": "[3]; 8 min", "value": 182379068},
      {"measurement": "Sample Peak Average", "setting": "[3]; 16 min", "value": 176475001},
      {"measurement": "Sample Peak Average", "setting": "[3]; 30 min", "value": 179508039},
      {"measurement": "Sample Peak Average", "setting": "[3]; 1 h", "value": 175087504},
      {"measurement": "Sample Peak Average", "setting": "[3]; 2 h", "value": 171193983},
      {"measurement": "logP", "setting": "physchem", "value": 1.37}
    ]}
  ]
}
